Reference: US11253589B2, “Modulation of the immune response” (priority 2007, dated 2022)
“Also recorded” adds a separate entry of the source.

How the values were obtained:
myelin specific T cells = assay: Recall response (proliferation, cytokine secretion) to MOG35-55 or anti-CD3 of cells from treated mice; assay type: in vivo, mouse
Protocol: Cells were cultured in serum-free X-VIVO 20™ media (BioWhittaker, Walkersville, Md., USA) for 72 hours. During the last 16 hours, cells were pulsed with 1 μCi of [^3H]thymidine (PerkinElmer, Waltham, Mass., USA) followed by harvesting on glass fiber filters and analysis of incorporated [^3H]thymidine in a beta-counter (1450 Microbeta, Trilux, PerkinElmer). Alternatively, culture supernatants were collected […] activation and the cytokine concentration was determined by ELISA using antibodies for IFN-γ, IL-17, IL-4, IL-10 from BD Biosciences and antibodies to TGF-β from R&D Systems. For suppression assays, MACS purified CD4^+CD25^− T cells from naïve C57BL/6 mice (1-5×10^4 cells/well) were stimulated with antibodies to CD3 and C57BL/6 irradiated spleen cells (0.3-1.5×10^4 cells/well) for 3 days in the presence of different ratios of CD4^+ GFP^+ retrovirus-transduced T cells.
To further characterize the suppression of EAE by AHR activation we studied the activity of myelin specific T cells induced by vaccination with MOG35-55/CFA in TCDD-treated mice.
(§1) In addition, cells were stimulated in culture medium containing 100 μg/ml MOG35-55 for 2 days or with PMA (50 ng/ml) (Sigma-Aldrich) and ionomycin ([…]) (Calbiochem, San Diego, Calif., USA) for 4 hours, Golgistop (BD Biosciences) was added to the culture during the last 4 hours. After staining of surface markers, cells were fixed and permeabilized using Cytofix/Cytoperm and Perm/Wash buffer from BD Biosciences according to the manufacturer's instructions. All antibodies to cytokines (IFN-gamma, IL-17, IL-10) including the corresponding isotype controls were obtained from BD Biosciences. Cells were incubated (1:100) at 25° C. for 20 min and washed twice in Perm/Wash before analysis. Data were acquired on a FACSCalibur (BD Biosciences) and analyzed with FlowJo software (Tree Star, Ashland, Oreg., USA).
We then studied the effect of ITE administration on the encephalitogenic response against myelin. EAE was induced on naïve C57BL/6 mice and ITE ([…]) was administered orally or intraperitoneally on daily basis.

CD11c+ and CD11b+ cells = assay: MHC class II expression on CD11c+ and CD11b+ cells by FACS; assay type: in vivo; conditions: ITE 200 mg/mouse ip daily or TCDD 1 mg/mouse ip on day 0; spleens 10 days after MOG35-55/CFA
Excerpt: AHR is known to be expressed by antigen presenting cells (APC) such as dendritic cells (CD11c^+) and macrophages (CD11b^+) (Vorderstrasse and Kerkvliet, Toxicol Appl Pharmacol. 171, 117 (2001); Laupeze et al., J Immunol. 168, 2652 (2002); Hayashi et al., Carcinogenesis. 16, 1403 (1995); Komura et al., Mol Cell Biochem. 226, 107 (2001)). To analyze the effects that AHR activation by ITE might have on different APC populations, which can potentially influence the generation of Teff and Treg cells, we studied the effect of ITE and TCDD treatment on MHC class II expression by as dendritic cells (CD11c^+) and macrophages (CD11b). C57BL/6 mice were treated with ITE (200 mg/mouse administered ip, daily) or TCDD (1 mg/mouse administered ip on day 0) and immunized them with […] of MOG35-55 in CFA. Spleens were prepared 10 days later and […] expression was investigated on CD11b^+ and CD11c^+ cells by FACS.

[1] = test system: CD4+IL-17+ and CD4+IFNg+ T cells; assay: Frequency of CD4+IL-17+ and CD4+IFNg+ T cells by FACS; assay type: in vivo, mouse
Protocol: as §1
To confirm the suppressive effects of AHR activation on the generation of T cells secreting IFNg and IL17, IFNg^+ and IL17^+ CD4^+ T cells were quantified by FACS in the draining lymph nodes ten days after footpad immunization and intraperitoneal administration of ITE ([…]).

C57BL/6 mice = assay: EAE induced by immunization with MOG35-55 in CFA; assay type: in vivo, mouse; set-up: EAE severity: dose or concentration left out as unconfirmed
AHR = target: T1, AHR (Homo sapiens, UniProt P35869); conditions: cited from earlier work
T1 sequence (P35869 11-848): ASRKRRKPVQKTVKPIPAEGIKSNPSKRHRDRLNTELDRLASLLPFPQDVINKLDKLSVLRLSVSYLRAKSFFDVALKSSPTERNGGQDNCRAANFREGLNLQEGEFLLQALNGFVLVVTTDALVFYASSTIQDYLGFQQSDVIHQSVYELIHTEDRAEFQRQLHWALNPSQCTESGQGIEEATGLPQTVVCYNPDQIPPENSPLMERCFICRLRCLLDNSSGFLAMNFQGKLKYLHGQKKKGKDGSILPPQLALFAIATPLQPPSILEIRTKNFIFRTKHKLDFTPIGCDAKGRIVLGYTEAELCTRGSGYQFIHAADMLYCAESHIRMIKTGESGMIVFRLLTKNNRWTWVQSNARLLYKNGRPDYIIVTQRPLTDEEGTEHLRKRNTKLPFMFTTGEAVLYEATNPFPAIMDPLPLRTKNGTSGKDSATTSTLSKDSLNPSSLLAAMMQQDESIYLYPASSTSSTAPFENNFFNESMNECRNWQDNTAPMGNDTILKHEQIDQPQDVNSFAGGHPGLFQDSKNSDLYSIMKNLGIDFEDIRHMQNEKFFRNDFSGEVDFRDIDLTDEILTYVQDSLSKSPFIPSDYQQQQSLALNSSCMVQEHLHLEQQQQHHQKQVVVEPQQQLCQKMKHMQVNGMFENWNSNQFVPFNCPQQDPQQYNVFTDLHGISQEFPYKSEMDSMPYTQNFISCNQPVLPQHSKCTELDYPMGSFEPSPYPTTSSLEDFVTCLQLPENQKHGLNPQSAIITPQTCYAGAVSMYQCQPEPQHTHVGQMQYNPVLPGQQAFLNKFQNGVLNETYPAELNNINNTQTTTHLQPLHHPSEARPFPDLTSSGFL

[2] = cells purified from TCDD-treated Foxp3gfp mice
[3] = draining lymph node cells of TCDD-treated mice vs control
[4] = lymph node cells of TCDD-treated mice, 10 days after MOG35-55/CFA
[5] = draining lymph nodes of TCDD-treated mice
[6] = C57BL/6 (WT) mice, TCDD 1 μg/mouse, Table 4
[7] = CD4+ T cells from ITE-treated mice vs control
[8] = ITE 200 mg/mice daily (FIG. 22: IP), splenocytes
[9] = ITE 200 mg/mice intraperitoneal, draining lymph nodes ten days after footpad immunization
[10] = ITE 200 μg/mouse daily, either orally or intraperitoneally

## Clc1cc2c(cc1Cl)Oc1cc(Cl)c(Cl)cc1O2 [TCDD, 2,3,7,8 tetrachlorodibenzo-p-dioxin]
Myelin specific T cells; [2]
  proliferation of effector CD4+ Foxp3:GFP- T cells to MOG35-55: normal proliferation
  secretion of IFNγ by effector CD4+ Foxp3:GFP- T cells upon activation with MOG35-55: significantly decreased secretion
  secretion of IL-17 by effector CD4+ Foxp3:GFP- T cells upon activation with MOG35-55: significantly decreased secretion
Myelin specific T cells; [3]
  IFNg secretion upon activation with MOG35-55: lower amounts
  IL-17 secretion upon activation with MOG35-55: lower amounts
  TGFb1 secretion upon activation with MOG35-55: higher amounts
Myelin specific T cells; [4]
  proliferative response upon activation with antibodies to CD3: no differences were seen
  recall proliferative response to the MOG35-55 peptide: suppressed recall proliferative response
CD11c+ and CD11b+ cells
  CD11b+ MHC class II expression: significant increase
  CD11c+ MHC class II expression: significant decrease
[1]; [5]
  frequency of CD4+IFNg+ T cells: decrease in the frequency
  frequency of CD4+IL-17 T cells: decrease in the frequency
[1]; natural Treg depleted with antibodies to CD25 prior to TCDD treatment, day 18
  IL-17+CD4+ T cells in the draining lymph nodes: significant reduction; also recorded: significant decrease in the frequency
C57BL/6 mice; AHR-ligand loaded nanoparticles, 45 femtomoles weekly starting at day 0
  EAE development: complete suppression of EAE
C57BL/6 mice; [6]
  Mean day of onset (Mean ± SD): 21 days
  Mean maximum score (mean ± SD): 0.2 ± 0.6
C57BL/6 mice; IP administered TCDD, day 19 after EAE induction
  histopathological signs of EAE (cellular infiltrate, demyelination, axonal loss in spinal cord): reduced the histopathological signs of EAE; also recorded: inhibits CNS inflammation, demyelination and axonal loss
C57BL/6 mice; TCDD 0.01 μg per mouse ip
  Incidence (positive/total): 7/7
  Mean day of onset (Mean ± standard deviation (SD)): 14.1 ± 2.9 days
C57BL/6 mice; TCDD 0.01 μg per mouse ip, EAE score 0-5
  Mean maximum score (mean ± SD): 2.7 ± 0.6
C57BL/6 mice; TCDD 0.1 μg per mouse ip
  Mean day of onset (Mean ± standard deviation (SD)): 17.0 ± 1.2 days
C57BL/6 mice; TCDD 0.1 μg per mouse ip, EAE score 0-5
  Mean maximum score (mean ± SD): 3.1 ± 0.5
C57BL/6 mice; TCDD 1 μg per mouse ip, then MOG35-55/CFA
  Mean day of onset (Mean ± standard deviation (SD)): 21.8 ± 1.5 days
C57BL/6 mice; TCDD 1 μg per mouse ip, then MOG35-55/CFA, EAE score 0-5
  Mean maximum score (mean ± SD): 0.2 ± 0.6
C57BL/6 mice; TCDD 1 μg/mouse ip
  clinical signs of EAE: markedly inhibited the clinical signs of EAE
C57BL/6 mice; TCDD 1 μg/mouse orally, one day before EAE induction
  EAE development: prevented EAE development
C57BL/6 mice; natural Treg depleted with antibodies to CD25 prior to TCDD treatment
  onset of EAE: significant delay in the onset of EAE
AHR
  AHR affinity: high affinity AHR ligand

## COC(=O)c1csc(C(=O)c2c[nH]c3ccccc23)n1 [ITE, 2-(1′H-indole-3′-carbonyl)-thiazole-4-carboxylic acid methyl ester]
Myelin specific T cells; [7]
  IFNg secretion upon activation with MOG35-55: lower amounts
  IL2 secretion upon activation with MOG35-55: lower amounts
  IL6 secretion upon activation with MOG35-55: lower amounts
  IL17 secretion upon activation with MOG35-55: lower amounts
  IL-10 secretion upon activation with MOG35-55: higher amounts
  TGFb1 secretion upon activation with MOG35-55: higher amounts
Myelin specific T cells; Foxp3gfp mice, ITE 200 mg/mice intraperitoneal daily
  recall response of purified CD4+ T cells: suppressed response to MOG35-55 but not to anti-CD3
Myelin specific T cells; [8]
  proliferative response upon activation with antibodies to CD3: no differences were seen
  recall proliferative response to the MOG35-55 peptide: suppressed recall proliferative response
Myelin specific T cells; ITE-treated mice
  secretion of IFNg by lymph node cells activated with MOG35-55 or αCD3: significant reduction in the secretion
  secretion of IL-17 by lymph node cells activated with MOG35-55 or αCD3: significant reduction in the secretion
CD11c+ and CD11b+ cells
  CD11b+ MHC class II expression: significant increase
  CD11c+ MHC class II expression: significant decrease
[1]; [9]
  frequency of CD4+IFNg+ T cells: decrease in the frequency
  frequency of CD4+IL17+ T cells: decrease in the frequency
C57BL/6 mice; ITE 200 μg/mouse at weekly intervals instead of daily
  protective effects on EAE: complete loss of tis protective effects on EAE; also recorded: fails to suppress EAE development
C57BL/6 mice; [10]
  EAE clinical score: significant reduction of EAE clinical score
  EAE development (delay): significant delay on EAE development
C57BL/6 mice; administered on a daily basis
  EAE severity: significant reduction on EAE severity
AHR
  AHR affinity: high affinity AHR ligands
